The target of experiment [1] is T1, tubulin/RB3-stathmin-like-domain (RB3-SLD-tdm) complex (Sus scrofa, UniProt P02550+P02554).
T1 construct: purchased Cytoskeleton, Inc. T240; host or cells: RB3-SLD was made in house in E. coli
The experiment in a line: Tubulin Peptide-Binding Site Competition Assay (fluorescence polarization). Also on record: species or system Porcine. The conditions noted are these: FP competition with BODIPY-labeled vinca peptide probe; read after five hours at 22° C.; read-out: Tubulin Peptide-Binding Site Competition Assay IC50. In a few lines:
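The BODIPY vinca-peptide probe was premixed with test compound and then added to porcine tubulin/RB3-SLD, at final concentrations of 3 nM probe, 6 nM tubulin and 100 nM RB3-SLD. The buffer was PIPES pH 7.0 with Tween 20, MgCl2 and EGTA, and 11-point dilutions were run in duplicate. IC50 was fitted from the fluorescence polarization decrease and converted to Ki.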
Background: In fluorescence polarisation assays a small probe gives low polarisation when free and higher when bound to something large.

Experiment [2] deals with N87 (gastric cancer) cells. Nature of the experiment: In vitro cell assay (MTS cell viability), N87. The class given is cell-based. The note with it: 96 h, free compounds; 96 hours after treatment. In outline: (§1)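 Cells seeded 24 h before treatment with antibody-drug conjugates or free compounds, 3-fold serial dilutions at 10 concentrations in duplicate. Viability read by MTS assay 96 h after treatment as % of untreated control; IC50 from four-parameter logistic fit.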

Experiment [3] concerns MDA-MB-361-DYT2 (breast cancer) cells. The experiment in a line: In vitro cell assay (MTS cell viability), MDA-MB-361-DYT2. The experiment is classed as cell-based. The note with it: 96 h, free compounds; 96 hours after treatment. In a few lines: as §1
The next experiment relates to HT-29 cells. The experiment in a line: In vitro cell assay (MTS cell viability), HT-29 (target non-expressing). The experiment is classed as cell-based. The note with it: Homo sapiens, HT-29, 96 h, free compounds; 96 hours after treatment; read-out: HT29 IC50. In a few lines:
as §1

Each structure is given as a SMILES string.

Broadly, the IC50 is the point on the concentration scale where inhibition reaches its midpoint. In the case of `CC[C@H](C)[C@H](NC(=O)[C@@]1(C)CCCN1C)C(=O)N(C)[C@H](C[C@@H](OC(C)=O)c1nc(C(=O)NCCc2cscn2)cs1)C(C)C` [#B76, 1,2-dimethyl-D-prolyl-N-[(1R,3R)-1-(acetyloxy)-4-methyl-1-(4-{[2-(1,3-thiazol-4-yl)ethyl]carbamoyl}-1,3-thiazol-2-yl)pentan-3-yl]-N-methyl-L-isoleucinamide], the IC50 was 19.9 nM in experiment [1], 87.7 nM in experiment [2], 42 nM in experiment [3] and 37.4 nM in the experiment on HT-29 cells.

`CC[C@H](C)[C@H](NC(=O)[C@@]1(C)CCCN1C)C(=O)N(C)[C@H](C[C@@H](OC(C)=O)c1nc(C(=O)N[C@H](CNS(C)(=O)=O)Cc2ccccc2)cs1)C(C)C` [#B58, 1,2-dimethyl-D-prolyl-N-{(1R,3R)-1-(acetyloxy)-4-methyl-1-[4-({(2S)-1-[(methylsulphonyl)amino]-3-phenylpropan-2-yl}carbamoyl)-1,3-thiazol-2-yl]pentan-3-yl}-N-methyl-L-isoleucinamide]: the half-inhibitory concentration (IC50) in experiment [1] came to 5 nM; in experiment [2], 5.63 nM; in experiment [3], 2.26 nM; in the experiment on HT-29 cells, 1.49 nM.

As to `CCNC(=O)O[C@H](C[C@H](C(C)C)N(C)C(=O)[C@@H](NC(=O)C12CCC(CC1)N2C)[C@@H](C)CC)c1nc(C(=O)N[C@@H](Cc2ccc(N)cc2)C[C@H](C)C(=O)O)cs1` [#B26, (2S,4R)-5-(4-aminophenyl)-4-{[(2-[(6R,8R,11S)-11-[(2S)-butan-2-yl]-9-methyl-13-(7-methyl-7-azabicyclo[2.2.1]hept-1-yl)-4,10,13-trioxo-8-(propan-2-yl)-5-oxa-3,9,12-triazatridecan-6-yl]-1,3-thiazol-4-yl}carbonyl)amino]-2-methylpentanoic acid], the IC50 in experiment [1] was less than 0.5 nM; in experiment [2], 7.78 nM; in experiment [3], 8.27 nM; in the experiment with HT-29 cells it was 8.83 nM.

The values above are taken from patent publication US10723727B2, “Tubulysin analogs and methods for their preparation” (priority 2016, dated 2020).
